Assay results: patent US5187168A, “Substituted quinazolines as angiotensin II antagonists” (American Home Products Corporation, priority 1991, dated 1993)

Test system: A II-infused rat
Experiment: A II-infused rat model (ganglion-blocked, intraduodenal dosing), antihypertensive action
Assay type: in vivo
Conditions: 10 mg/kg id, one half hour post-administration
Procedure: In accordance with their ability to antagonize angiotensin II, the compounds of this invention show antihypertensive action in the following A II-infused rat model. Rats are anesthetized with Dial-Urethane (0.60 mL/kg, ip) and the trachea cannulated with PE 240. Either one femoral artery and both femoral veins or the carotid artery and the corresponding jugular vein are cannulated with PE 50. If the jugular vein is cannulated, two cannulas are placed in the one vein. The initial portion of the duodenum (just distal to the stomach) is cannulated with PE 50 via a small midline incision. Arterial pressure and heart rate are measured from the arterial cannula. Ten to 15 min are allowed following surgery for stabilization of arterial pressure. Ganglion blockade is then produced by intravenous administration of mecamylamine at 3 mg/kg (1 mL/kg of a 3 mg/mL solution). Ganglion blockade causes a fall in arterial pressure of about 50 mmHg. Mecamylamine is given every 90 min throughout the remainder of the experiment. An A II infusion is then begun into the other venous cannula at […] (at 9.6 uLmin). The A II infusion returns arterial pressure to or slightly above the control level. Once arterial pressure has stabilized with the A II infusion, baseline values for mean arterial pressure (MAP) and heart rate are taken. […]

O=C(O)c1ccccc1-c1ccc(CNc2nc(C(F)(F)F)nc3ccsc23)cc1 [Example 36]
lowering of the A II dependent blood pressure (average): 45%
